{"source": "paper PMC8637573", "about": "“EWS–FLI1‐targeting peptide identifies Ewing sarcoma tumor boundaries and lymph node metastasis via near‐infrared imaging” (Molecular Oncology, 2021)", "key": {"A673 cells": {"tested_on": "A673 cells", "test": "Living cell fluorescence imaging", "format": "cell-based, human", "settings": "A673 cells pre‐incubated with 50 μM E9R for 1 h, then 10 μM CS2‐N‐E9R", "protocol": "E/F‐positive ES cells (A673) and E/F‐negative sarcoma cells (143B) were then seeded into confocal culture dishes at a density of 2 × 10^5 cells each dish in 1.5‐mL medium containing 10% FBS. After 24 h of cell attachment, the dishes were then washed three times with 1 mL PBS. The dishes were then cultured in medium with 10 μM probe CS2‐N‐E9R. The intracellular probe aggregations were then observed by Leica‐LCS‐SP8‐STED confocal microscope (Leica, Wetzlar, Germany).\nE/F‐positive ES cells (A673 cells, RD‐ES cells) and E/F‐negative osteosarcoma cells (143B cells), hepatoma carcinoma cells (Hep3B cells), and […] embryonic human kidney cells (293T cells) were seeded into confocal culture dishes. All the dishes were incubated with 10 μM CS2‐N‐E9R for 1 h and washed three times with PBS buffer before imaging, except for the control and blocking groups. For the control group, A673 cells were incubated with 10 μM control probe CS2‐N‐E. For the blocking group, A673 cells were pre‐incubated with 50 μM peptide E9R as a blocking agent for 1 h, after that incubated with 10 μM probe CS2‐N‐E9R."}, "E/F in A673 cells": {"biological_target": "T1, E/F in A673 cells (Homo sapiens, UniProt Q01543+Q01844)", "T1 construct": "endogenous in cells; host or cells: A673 cells (fixed and permeabilised in A8, living in A10)", "T1 sequence (Q01844+Q01543 with tags, fused parts or gaps)": "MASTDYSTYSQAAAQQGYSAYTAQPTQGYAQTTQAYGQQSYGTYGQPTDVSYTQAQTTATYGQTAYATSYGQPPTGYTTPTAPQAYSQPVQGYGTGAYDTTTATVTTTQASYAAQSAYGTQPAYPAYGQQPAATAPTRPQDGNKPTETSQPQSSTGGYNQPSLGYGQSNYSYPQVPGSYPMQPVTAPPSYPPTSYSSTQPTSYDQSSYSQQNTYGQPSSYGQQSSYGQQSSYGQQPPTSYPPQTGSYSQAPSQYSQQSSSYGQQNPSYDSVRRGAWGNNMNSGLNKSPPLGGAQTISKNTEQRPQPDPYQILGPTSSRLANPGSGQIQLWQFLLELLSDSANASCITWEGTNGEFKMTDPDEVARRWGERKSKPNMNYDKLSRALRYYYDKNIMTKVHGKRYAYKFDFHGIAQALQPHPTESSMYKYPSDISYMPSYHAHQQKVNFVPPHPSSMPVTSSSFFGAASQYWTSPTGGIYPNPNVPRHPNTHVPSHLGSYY", "test": "Binding affinity test (competition of E9R with CS2‐N‐E9R)", "settings": "E9R 4 × 10^−3 M to 4 × 10^−9 M incubated 1 h, washed, then 4 μM CS2‐N‐E9R 40 min, Odyssey Infrared Imager, average of quadruple wells, read-out: IC50 for the inhibition of CS2‐N‐E9R binding E/F", "protocol": "As to the binding affinity test, serial concentrations of E9R (from 4 × 10^−3 M to 4 × 10^−9 M) were prepared as competitors for CS2‐N‐E9R. A673 cells were seeded into 96‐well Black Polystyrene Assay plate at a concentration of 4 × 10^3 cells per well with 150 μL medium containing 10% FBS at incubator for 24 h. Different concentrations of E9R were added into palate and incubated for 1 h, and then washed three times with PBS (pH 7.4). 4 μM of CS2‐N‐E9R was then added into each well and incubated for another 40 min. After that the samples were washed and imaged with Odyssey® Infrared Imager. Each data point represents the average value of quadruple wells. Data were analyzed using GRAPHPAD PRISM (GraphPad Software, San Diego, CA, USA). IC50 values, which were defined as the concentration of competitive agent required to inhibit 50% of CS2‐N‐E9R binding, were calculated."}}, "note": "Residues, ends and D or L forms follow the SMILES beside them.", "data": [{"smiles": "CC[C@H](C)[C@H](NC(=O)[C@@H](NC(=O)[C@H](C)NC(=O)[C@H](CC(=O)O)NC(=O)[C@H](CC(C)C)NC(=O)[C@@H]1CCCN1C(=O)[C@@H]1CCCN1C(=O)[C@@H]1CCCN1)C(C)C)C(=O)N[C@@H](CCC(=O)O)C(=O)N[C@@H](C)C(=O)O", "note": "[E9R] (H-PPPLDAVIEA-OH; N-terminus assumed)", "values": [{"measurement": "fluorescence of CS2‐N‐E9R after pretreatment with blocking agent", "setting": "A673 cells", "value": "fluorescence muted"}, {"measurement": "IC50", "setting": "E/F in A673 cells", "value": 3.69, "unit": "µM"}]}]}
